In patent publication US9955692B2, “Pyrazoles for controlling invertebrate pests” (BASF SE, priority 2014, dated 2018):

How the values were obtained:
Format in all cases: in vivo
[1] = system: Green peach aphid (Myzus persicae); test: Green peach aphid spray test on bell pepper plants; details: 120 h, aphid mortality determined after 5 days, read-out: mortality in comparison with untreated controls
Protocol: (§1) The active compounds were formulated in cyclohexanone as a 10,000 ppm solution supplied in 1.3 ml ABgene® tubes. These tubes were inserted into an automated electrostatic sprayer equipped with an atomizing nozzle and they served as stock solutions for which lower dilutions were made in 1:1 (vol:vol) water:aceton. A nonionic surfactant (Kinetic®) was included in the solution at a volume of 0.01% (v/v).
Bell pepper plants at the first true-leaf stage were infested prior to treatment by placing heavily infested leaves from the main colony on top of the treatment plants. Aphids were allowed to transfer overnight to accomplish an infestation of 30-50 aphids per plant and the host leaves were removed. The infested plants were then sprayed by an automated electrostatic plant sprayer equipped with an atomizing spray nozzle. The plants were dried in the sprayer fume hood, removed, and then maintained in a growth room under fluorescent lighting in a 24 hour photoperiod at 25° C. and 20-40% relative humidity. Aphid mortality on the treated plants, relative to mortality on untreated control plants, was determined after 5 days.

[2] = system: Cowpea aphid (Aphis craccivora); test: Cowpea aphid spray test on potted cowpea plants; details: population reduction assessed after 24, 72 and 120 hours, read-out: mortality in comparison with untreated controls
Protocol: If not otherwise specified the test solutions were prepared as follows:
The active compound was dissolved at the desired concentration in a mixture of 1:1 (vol:vol) distilled water:aceton. The test solution was prepared at the day of use and in general at concentrations of ppm (wt/vol).
Potted cowpea plants colonized with 100-150 aphids of various stages were sprayed after the pest population had been recorded. Population reduction was assessed after 24, 72, and 120 hours.

[3] = system: Vetch aphid (Megoura viciae); test: Vetch aphid bean leaf disk microtiter plate test; details: foliar, 144 h, 6 days, assessed on the basis of vital, reproduced aphids, read-out: mortality in comparison with untreated controls
Protocol: The active compounds were formulated in 3:1 (vol:vol) water:DMSO with different concentrations of formulated compounds.
Bean leaf disks were placed into microtiterplates filled with 0.8% agar-agar and 2.5 ppm OPUS™. The leaf disks were sprayed with 2.5 μl of the test solution and 5 to 8 adult aphids were placed into the microtiter plates which were then closed and kept at 23±1° C. and 50±5% relative humidity under fluorescent light for 6 days. Mortality was assessed on the basis of vital, reproduced aphids. Aphid mortality and fecundity was then visually assessed.

[4] = system: Cotton aphid (Aphis gossypii, mixed life stages); test: Cotton aphid spray test on cotton plants; details: 120 h, aphid mortality determined after 5 days, read-out: mortality in comparison with untreated controls
Protocol: as §1
Cotton plants at the cotyledon stage were infested with aphids prior to treatment by placing a heavily infested leaf from the main aphid colony on top of each cotyledon. Aphids were allowed to transfer overnight to accomplish an infestation of 80-100 aphids per plant and the host leaf was removed. The infested plants were then sprayed by an automated electrostatic plant sprayer equipped with an atomizing spray nozzle. The plants were dried in the sprayer fume hood, removed from the sprayer, and then maintained in a growth room under fluorescent lighting in a 24-hr photoperiod at 25° C. and 20-40% relative humidity. Aphid mortality on the treated plants, relative to mortality on untreated control plants, was determined after 5 days.

[5] = system: Silverleaf whitefly (Bemisia argentifolii, adult); test: Silverleaf whitefly test on sprayed cotton plants; details: 72 h, mortality assessed 3 days after treatment, read-out: mortality in comparison with untreated controls
Protocol: as §1
Cotton plants at the cotyledon stage (one plant per pot) were sprayed by an automated electrostatic plant sprayer equipped with an atomizing spray nozzle. The plants were dried in the sprayer fume hood and then removed from the sprayer. Each pot was placed into a plastic cup and 10 to 12 whitefly adults (approximately 3-5 days […]) were introduced. The insects were collected using an aspirator and 0.6 cm, nontoxic Tygon® tubing (R-3603) connected to a barrier pipette tip. The tip, containing the collected insects, was then gently inserted into the soil containing the treated plant, allowing insects to crawl out of the tip to reach the foliage for feeding. Cups were covered with a reusable screened lid (150-micron mesh polyester screen PeCap from Tetko, Inc.). […] Mortality was assessed 3 days after treatment, compared to untreated control plants.

CCC(C)=NOCC(C)n1ncc(C(=O)N(CC)c2ccnnc2)c1C (single isomer, unassigned) [I-9, N-ethyl-5-methyl-1-[1-methyl-2-[1-methyl-propylideneamino]oxy-ethyl]-N-pyridazin-4-yl-pyrazole-4-carboxamide]
≥ 75%: mortality at 300 ppm [1] | mortality at 500 ppm [2] | mortality at 2500 ppm [3] | mortality at 300 ppm [4] | mortality at 300 ppm [5]
